From article PMC5054527, “Mechanism of high affinity inhibition of the human urate transporter URAT1” (Scientific Reports, 2016) come the findings set out here.

What all share (experiment): URAT1 uric acid transport activity assay
Format in all cases: cell-based

Test [1] concerns the target T1, r-T26V rURAT1 point mutant (Rattus norvegicus, UniProt Q3ZAV1, T26V).
T1 sequence (Q3ZAV1 1-553 T26V): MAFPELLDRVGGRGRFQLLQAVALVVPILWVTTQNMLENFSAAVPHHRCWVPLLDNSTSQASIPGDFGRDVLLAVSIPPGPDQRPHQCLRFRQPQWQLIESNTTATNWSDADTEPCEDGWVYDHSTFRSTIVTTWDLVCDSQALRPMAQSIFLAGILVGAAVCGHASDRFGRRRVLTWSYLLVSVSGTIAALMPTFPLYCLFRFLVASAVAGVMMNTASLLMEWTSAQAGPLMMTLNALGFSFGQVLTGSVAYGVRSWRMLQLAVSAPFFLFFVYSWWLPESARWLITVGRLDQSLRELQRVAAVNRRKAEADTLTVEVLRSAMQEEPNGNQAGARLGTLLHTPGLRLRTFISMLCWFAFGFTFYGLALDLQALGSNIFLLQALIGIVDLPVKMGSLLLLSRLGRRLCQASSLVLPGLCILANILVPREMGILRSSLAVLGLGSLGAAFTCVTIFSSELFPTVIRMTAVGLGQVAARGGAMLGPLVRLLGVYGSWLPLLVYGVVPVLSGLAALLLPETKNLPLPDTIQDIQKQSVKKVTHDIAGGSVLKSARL
The source says: (§1) hURAT1 (GenBank BC053348.1) and rURAT1 (NCBI NM_001034943.1) genes were purchased from Origene Technologies, Inc. and subcloned into pCMV6/neo using NotI, creating pCMV6/neo-hURAT1 and pCMV6/neo-rURAT1. Mutants were produced by polymerase chain reaction (PCR) or site-directed mutagenesis using the QuikChange Lightning Multi Site-Directed Mutagenesis Kit (Agilent Technologies). […] Detailed methods are provided in Supplementary Methods, and primers are listed in Supplementary Table 1. […] Residues in rURAT1 and hOAT1 that correspond to the residues in hURAT1 were identified from aligned protein sequences (Supplementary Fig. 1)[50].
(§2) DNA (10 μg) was mixed with 30 μl of DreamFect Gold (Boca Scientific) in 2 ml OptiMem (Life Technologies). After 20 minutes, 18 ml of media containing 2 × 10^7 cells in suspension was added and mixed, and 200 μl per well were plated onto white clear-bottomed poly-D-lysine coated 96-well plates (BD Biosciences). The cells were assayed the following day.
(§3) Compounds were serially diluted into assay buffer and added to the cells for 5 minutes prior to addition of radiolabelled uric acid substrate. URAT1-expressing cells were incubated with 100 μM ^14C-uric acid for 10 minutes. […] Each treatment was measured in triplicate.
(§4) Unlabelled uric acid was prepared at a 20 mM stock just prior to use in a solution containing 20 mM dibasic potassium phosphate and 20 mM potassium hydroxide.
(§5) Nonlinear regression analyses using GraphPad Prism software were used to calculate the potency of URAT1 inhibitors (IC50 values) from log (inhibitor) versus response - variable slope (four parameters) equations. Statistical significance was assessed using Student’s unpaired t-tests.

For test [2], the target named is T2, r-N35S/Y365F rURAT1 double point mutant (Rattus norvegicus, UniProt Q3ZAV1, N35S/Y365F).
T2 construct: expressed in transfected cells; host or cells: HEK-293T
T2 sequence (Q3ZAV1 1-553 N35S/Y365F): T1 sequence (Q3ZAV1 1-553 T26V) with V26T, N35S, Y365F
Description: as §1, §2, §3, §4, §5

The target in test [3] is T3, r-N35S rURAT1 point mutant (Rattus norvegicus, UniProt Q3ZAV1, N35S).
T3 construct: expressed in transfected cells; host or cells: HEK-293T
T3 sequence (Q3ZAV1 1-553 N35S): T1 sequence (Q3ZAV1 1-553 T26V) with V26T, N35S
To be noted: for fold increased affinity of r-N35S compared to rURAT1: from IC50 values.
Description: as §1, §2, §3, §4, §5

The mark [4] stands for this setting: r-N35S/Y365F, MES pH 5.5, 100 μM 14C-uric acid, read-out: IC50 (uric acid transport).
[5] abbreviates: r-N35S, MES pH 5.5, 100 μM 14C-uric acid, read-out: IC50 (uric acid transport).

Changes are numbered by the printed parent chain. Like-named read-outs stand apart in the source and are kept apart here.

One may read the IC50 as the concentration that inhibits the measured activity by half. In the case of `CCc1oc2ccccc2c1C(=O)c1cc(Br)c(O)c(Br)c1` [benzbromarone], the results for the IC50 in test [1], in test [2] and in test [3] were 26 ± 4.4 µM, 2.2 ± 0.29 µM and 17 ± 2.1 µM, respectively.

On to `O=C(O)CSc1nnc(Br)n1-c1ccc(C2CC2)c2ccccc12` [lesinurad, 2-((5-bromo-4-(4-cyclopropylnaphthalen-1-yl)-4H-1,2,4-triazol-3-yl)thio)acetic acid], for which the IC50 in test [1] (r-T26V, MES pH 5.5, 100 μM 14C-uric acid, read-out: IC50 (uric acid transport)) turned out to be 76 ± 2.3 µM; in test [2] (setting [4]) it was 1.6 ± 0.03 µM; in test [3] (setting [5]), 57 ± 6.3 µM.

For `O=C1C(CC[S+]([O-])c2ccccc2)C(=O)N(c2ccccc2)N1c1ccccc1` (centres unmarked) [sulfinpyrazone], the IC50 in test [1] (r-T26V, HEPES pH 7.3, 100 μM 14C-uric acid, read-out: IC50 (uric acid transport)) was found to be 655 ± 191 µM; in test [2] (r-N35S/Y365F, HEPES pH 7.3, 100 μM 14C-uric acid, read-out: IC50 (uric acid transport)), 142 ± 15 µM; in test [3] (r-N35S, HEPES pH 7.3, 100 μM 14C-uric acid, read-out: IC50 (uric acid transport)), 189 ± 32 µM. Further, the “fold increased affinity of r-N35S compared to rURAT1” value in test [3] is listed as 3.6 fold.

On to `O=c1[nH]c(=O)c2[nH]c(=O)[nH]c2[nH]1` [uric acid], for which, in test [2] (from IC50 values), the “fold increased affinity of r-N35S/Y365F compared to rURAT1” value is 5.4 fold. Moreover, the IC50 in test [2] (setting [4]) came out at 484 µM; in test [3] (setting [5]), 2660 µM. In addition, in test [3], the “fold increased affinity of r-N35S compared to rURAT1” value was “no phenotype”.
